Patent publication US8372808B2, “Suppression of glial fibrillary acidic protein” (Wisconsin Alumni Research Foundation, priority 2008, dated 2013)
Values joined by “and” are separate entries in the source; they are usually repeats but may differ in a detail not shown here. Equal values may be shown once.

Key:
[1] = test system: GFAP protein; experiment: sandwich ELISA for GFAP protein in 172.9 cells, quaternary screen; type: cell-based, mouse; conditions: 10 days of exposure, 0-20 μM
Protocol: (§1) Compounds were tested at eight different concentrations ranging from 0-20 μM. In addition, GFAP protein levels were measured using a sandwich ELISA, which has greater sensitivity and is more accurate than the cell-based ELISA used in the primary screens.
The extracts were harvested from each well and the total GFAP content of each well was measured by a sandwich ELISA as described below. Briefly, separate microtiter plates were coated with SMI-26 anti-GFAP mouse monoclonal antibody cocktail (1:1000, Covance, diluted in PBS) overnight at 4° C., rinsed 3 times in PBS, and then blocked with Blotto (5% nonfat milk/PBS) for 2 h at RT. Samples from the astrocyte cell lysate (20 μl per well) were loaded onto the plates and brought up to 100 μl with 0.5% Triton X-100/PBS (a buffer used for subsequent antibody incubations and rinses), and incubated with a rabbit polyclonal anti-GFAP antibody (1:5000, DAKO) overnight at 4° C. The plates were rinsed three times and then incubated with HRP-conjugated goat anti-rabbit IgG (1:30,000, Sigma) for 2 h at RT. After three final rinses, peroxidase activity was detected using the Super Signal Femto maximum Sensitivity Substrate (Pierce) with a GloRunner microplate luminometer (Turner Biosystems). The GFAP content in the samples was determined from a standard curve generated using serial dilutions of purified GFAP (Research Diagnostics).

[2] = test system: 2.2 kb human GFAP promoter; experiment: hGFAP promoter luciferase activity assay in 172.9 cells (primary astrocytes from dual luciferase transgenic mice); type: cell-based
Protocol: Cell-based assays were performed as four different screens using enriched cortical primary astrocyte cultures developed from transgenic mice expressing both firefly and Renilla luciferase reporter genes were generated. Briefly, the'firefly luciferase was placed under the control of a 2.2 kb human GFAP promoter to monitor GFAP transcription, and the Renilla luciferase was placed under the control of a 0.5 kb human GAPDH (glyceraldehyde 3-phosphate dehydrogenase) promoter to monitor transcription of a housekeeping gene for signal normalization. See section B, below for more detail regarding the development of transgenic mouse strains. Cells used in the following examples (e.g., the cortical primary astrocyte cells termed “172.9 cells,” described below) were developed from the transgenic mice described in section B.
Briefly, the cortices from individual pups were freed of meninges and placed into DMEM (Gibco) without serum, mechanically disassociated into single cells, suspended in medium containing DMEM supplemented with 10% fetal bovine serum (FBS; Hyclone), 100 U/ml penicillin, 100 μg/ml streptomycin (Gibco), seeded into T25 flasks (one brain per flask), and maintained in a humidified 5% CO2 atmosphere at 37° C. […] Medium was changed every 3 days. At 14-16 days in vitro (DIV), the flasks were shaken overnight at 200 rpm to remove oligodendrocytes and microglia. […] The cells were then suspended in DMEM with 10% FBS and plated (“passage 2”) on either 35 mm dishes, […], or 96-well plates (Corning) as needed. Cells were grown for varying days in vitro (DIV) at passage 2 and then used for various experiments. Tissue culture dishes and plates were pre-coated with 100 μg/ml poly-L-lysine for 1 h in a humidified 5% CO2 atmosphere at 37° C., and then allowed to air dry. […] Cell density was measured with the Vi-CELL cell counter (Beckman Coulter) or hemocytometer by the trypan-blue exclusion method. For simplicity, cells are referred to as “172.9 cells.”
Briefly, 172.9 cells were plated on poly-L coated white 96-well plates at a density of 5000 cells per well, in 100 μl DMEM with 10% FBS. At twenty-four hours, cells were exposed to the different compounds at a final concentration of 10 μM (diluted from a 50 mM stock) prepared in new medium (DMEM with 10% FBS). […] After exposure to compounds, luciferase activity in the primary and secondary screenings was determined by adding 30 μl of Bright-Glo™ reagent (Promega) to the 100 μl of media and cells of each well in the white 96-well plates with the Biomek® FX liquid handler (Beckman Coulter). After incubation for 1 minute at room temperature, signals were measured with the Safire 2 plate reader using Magellan™ software (Tecan). Other specific methods and equipment are known in the art and can be used to measure luciferase expression levels. This assay method is termed the “hGFAP promoter luciferase activity assay.” A reduction in luciferase expression as determined by this assay is termed “hGFAP promoter luciferase reduction.” For some assays that were aimed at confirming results of the initial screens, the same amount of Bright-Glo™ reagent was applied to each well in 96-well plates and signals were detected with the GloRunner™ Microplate Luminometer (Turner Biosystems) using the Dual-Glo® luciferase assay according to the manufacturer's recommendations (E1910, Promega).
In the secondary screen, cells were plated in a 96-well plate as described above for the primary screen.
Some compounds were unavailable outside of the library collections, and could not be further tested.
Each compound and concentration was analyzed in quadruplicate wells.
as §1

[3] = test system: GFAP protein; experiment: GFAP protein in brain of Tg172.9 mice (sandwich ELISA); type: in vivo, mouse
Protocol: Another group of mice were injected with the same volume of vehicle alone (n=15). Brains were bisected sagittally with one half analyzed for GFAP promoter activity using the Dual-Glo assay, and the other half analyzed for GFAP protein using the sandwich ELISA. FIG. 7A is a bar graph showing hGFAP promoter activity of clomipramine-treated mice. The mice show a 26% reduction in hGFAP promoter activity compared to vehicle-treated controls. FIG. 7B is a bar graph showing the GFAP protein levels of clomipramine-treated mice. The mice show a 57% reduction in total GFAP content compared to vehicle-treated controls. Graphs present the mean±SD (* p<0.05, ***p<0.001, unpaired t-test).
At various times after injection, from 0-48 hours, brains were harvested for measurement of GFAP promoter activity using the Dual-Glo luciferase assay, and GFAP protein using a sandwich ELISA.
Injections were given in the afternoon, between 3-5 PM. Controls were transgenic littermates injected with vehicle alone. At the end of the three week course of injections (and one day after the last injection), brains were harvested for analysis of GFAP promoter activity and protein levels as described above.
To achieve significant reductions of GFAP protein in vivo may require chronic treatments, given the slow turnover of this protein. […] Controls were injected with vehicle alone. […]

## CN(C)CCCN1c2ccccc2CCc2ccc(Cl)cc21 [clomipramine]
[1]
  reductions in GFAP protein levels: consistent reductions
[2]; cultured astrocytes
  concentrations found effective in cultured astrocytes: 5 to 10 µM
[2]; quaternary screen, 10 days of exposure, 0-20 μM
  reductions in luciferase activity: consistent reductions
[2]; tertiary screen, 48 hr exposure, at the MTDcc
  % GFAP reductions, luciferace expression from hGFAP promoter: 66%
[3]; 40 mg/kg IP every other day for 3 weeks
  reduction in GFAP protein compared to vehicle-treated controls: 57% and ~50%
[3]; acute treatment, single IP injection, 0-48 hours
  changes in GFAP protein levels: no changes
